Reference: patent US12508258B2, “Quinoline derivative for treating rheumatoid arthritis” (CHIA TAI TIANQING PHARMACEUTICAL GROUP CO., LTD., priority 2020, dated 2025)
Counter-ions that a name gives are not always drawn.

Legend:
[1] = tested on: rheumatoid arthritis CIA model rats; test: Rheumatoid arthritis CIA model, hind limb joint size monitoring (vernier caliper); type: in vivo; conditions: Wistar CIA rats, anlotinib 10 mg/kg; for joint swelling degree (ankle width and thickness) compared to model group: dexamethasone 0.1 mg/kg, FIGS. 2 and 3; for width of the hind limb ankle joints vs. model group / thickness of the hind limb ankle joints vs. model group: dexamethasone 0.1 mg/kg oral gavage once daily; for width of the hind limb ankle joints vs. model group: FIG. 2; for thickness of the hind limb ankle joints vs. model group: FIG. 3
Procedure: (§1) 15 SPF healthy male rats from Wistar with the weight of 160-180 g and purchased from Shanghai Institute of Planned Parenthood Research, with Certificate No. 20180006022473 in an SPF feeding environment.
(§2) Modeling group: on day 1 of the experiment, the primary immunization was performed. The animals in the modeling group were anesthetized with isoflurane. Four points were taken to inject the modeling agent on both sides of the spinal cord skin at the base of the tail of the rats. A total of 0.2 mL of CII/CFA molding emulsion was injected intradermally. On day 8 of the experiment, the second immunization was performed, and the operations were the same as those on day 1 of the experiment. Blank control group: equal volume of normal saline was injected.
(§3) After grouping, oral gavage administration was started according to the grouping requirements, and the administration volume was 10 mL/kg. The administration was carried out once daily for 14 days (from day 1 to day 14). On day 15, the animals were dissected after collection of relevant experimental data.
During the experiment, the width and thickness of the hind limb ankle joints of the rats in each group were measured with a vernier caliper on day 1, day 4, day 8, day 11 and day 15.

[2] = tested on: human rheumatoid arthritis synovial cells; test: MTT assay for the inhibition of human rheumatoid arthritis synovial cells; type: cell-based
Procedure: An MTT assay for the inhibition of human rheumatoid arthritis synovial cells using the dihydrochloride salt of the compound of formula I as the test drug: the trypsinized cell suspension was seeded in a 96-well plate at a volume of 100 μL per well, with 1×10^4 cells per well. The edges of the plate were wiped with sterile PBS. The plate was placed in a cell incubator and incubated at 37° C. with 5% CO2. After 24 h of incubation, the original culture solution in the wells was aspirated. Then 100 μL of culture solution with gradient concentration of drug was added to each well, and 6 concentrations were set, namely, 0 μM, 0.5 μM, 1 μM, 2 μM, 5 μM and 10 μM, respectively. The plate was placed in the incubator and incubated at 37° C. with 5% CO2. After 24 h and 48 h after dosing, 20 μL of MTS was added to each well. The plate was incubated at 37° C. for 1.5 h. The absorbance of each well at a wavelength of 540 nm was measured by a microplate reader, and the inhibition rate of cells in each group was calculated.
The calculation formula is as follows: cell inhibition rate/%=(1−[…])×100%

interleukin-1β (IL-1β) = test: CIA model rats, serum IL-1β by enzyme-linked immunosorbent assay; type: in vivo; conditions: SD CIA rats; day 28; 20 and 10 mg/kg
Procedure: (§4) After adaptive feeding of 80 SPF male SD rats with the weight of 140±10 g for 5 days, 10 male SD rats were randomly selected as a normal control group, and the rest were subjected to collagen-induced arthritis model modeling. The specific methods are as follows.
(§5) A solution of the bovine type II collagen (CII) in acetic acid (containing 2.0 mg·mL^−1 bovine CII) and an equal volume of complete Freund's adjuvant (CFA) were completely mixed, and the mixture was fully emulsified. The emulsion was added dropwise to water without diffusing as the degree, and finally the emulsion containing 1.0 mg·mL^−1 bovine CII was prepared. 0.2 mL of the emulsion was taken and injected intradermally into the dorsal and the base of the tail at four points (two points on the dorsal and two points on the base of the tail) for the primary immunization (d0). After day 7 (d7) of primary immunization, the emulsion was injected again as described above to boost the immunization. Then the arthritis index (AI) was scored on day 14 (d14). […]
(§6) After day 28 of the experiment, the blood was collected from the abdominal aorta of the rats in each group, and the serum was separated. The tumor necrosis factor-α (TNF-α) and the interleukin-1β (IL-1β) were detected by enzyme-linked immunosorbent assay, and the specific method was carried out according to the specifications of the kit. […]

CIA rats [3] = test: CIA model rats, determination of the rat paw swelling degree; type: in vivo; conditions: SD CIA rats; right hind paw thickness; 20 and 10 mg/kg
Procedure: as §4, §5
Determination of the rat paw swelling degree: before the primary immunization (d0), every 7 d (d7, d14) after the primary immunization and every 4 d after treatment, the thickness of the right hind paw of the rats was measured with a vernier caliper at the same position. […]

[4] = tested on: rat rheumatoid arthritis model; test: Rat rheumatoid arthritis CIA model, overall drug efficacy; type: in vivo; conditions: Wistar CIA rats; anlotinib 10 mg/kg oral gavage once daily for 14 days
Procedure: as §1
15 rats were randomly divided into two groups according to the weight, blank control group (n=3) and modeling group (n=12).
as §2
The animals in the modeling group were divided into 3 groups according to the joint swelling degree and the joint scores: group-2 (n=4, model group), group-3 (n=4, positive control group), and group-4 (n=4, test drug group).
After grouping, oral gavage administration was started according to the grouping requirements, and the administration volume was 10 mL/kg. The administration was carried out once daily for 14 days (from day 1 to day 14). […]

CIA rats [5] = test: CIA model rats, ankle joint histopathology (HE staining, lesion observation and scoring); type: in vivo; conditions: SD CIA rats; for joint lesions (histopathology) compared to model group: intragastric, once daily five days on/two days off, two weeks, formula I dihydrochloride 20 and 10 mg/kg, dexamethasone sodium phosphate 0.05 mg/kg
Procedure: as §4
A solution of the bovine type II collagen (CII) in acetic acid (containing 2.0 mg·mL^−1 bovine CII) and an equal volume of complete Freund's adjuvant (CFA) were completely mixed, and the mixture was fully emulsified. The emulsion was added dropwise to water without diffusing as the degree, and finally the emulsion containing 1.0 mg·mL^−1 bovine CII was prepared. 0.2 mL of the emulsion was taken and injected intradermally into the dorsal and the base of the tail at four points (two points on the dorsal and two points on the base of the tail) for the primary immunization (d0). After day 7 (d7) of primary immunization, the emulsion was injected again as described above to boost the immunization. Then the arthritis index (AI) was scored on day 14 (d14). The highest score of each rat was 16 points, and the arthritis induction was considered successful if there was at least 1 paw with AI score≥2.
The CIA rats successfully modeled were randomly divided into a drug medium-dose group, a drug low-dose group and a model group, with 10 rats in each group. The normal group and the model group were subjected to intragastric administration with 0.02 mL·g^−1 normal saline; the drug medium-dose group and the drug low-dose group were administered with the dihydrochloride salt of the compound of formula I at 20 mg/kg and 10 mg/kg, respectively, (the vehicle was normal saline). The positive drug group was subjected to intragastric administration with dexamethasone sodium phosphate with the dose of 0.05 mg/kg. The rats was administered once daily from Monday to Friday (i.e., consecutively five-day administration and then two-day interruption). The dosing period was two weeks.
After the animal blood collection was finished, ankle joints were fixed in 10% formalin. The ankle joints were subjected to decalcification by 10% acetic acid and then were subjected to routine paraffin embedding, slicing and HE staining. The slices were observed by pathology professionals, and then the damage degree of joint synovial tissue, joint bones and cartilage tissue was observed and scored for comparison.
Observation of lesions and scoring: 1. whether the joint synovial cells are proliferated or eroded (denatured, necrotic), and whether the inflammatory cells infiltrate or not; 2. whether the pannus is formed (composed of blood vessels and fibroblasts); 3. whether the bony erosion (joint bone and cartilage) or hyperplasia exists; 5. whether the joint cavity has stenosis, disappearance and other lesions. The observation indexes were classified into 3 grades according to the severity of the lesions, which were respectively recorded as: 1 point for slight, 2 points for moderate, and 3 points for severe. 0 points means substantially normal. All scores were accumulated to obtain a total score, and the average score (mean±SD) of each animal in each group was calculated, and the higher the score, the more severe the lesion.

[6] = tested on: rheumatoid arthritis CIA model rats; test: Rheumatoid arthritis CIA model, hind limb joint lesion scoring; type: in vivo; conditions: Wistar CIA rats, anlotinib 10 mg/kg, dexamethasone 0.1 mg/kg oral gavage once daily, FIG. 4
Procedure: as §1, §2
After modeling was completed, the animals were normally observed and housed. After the hind limb joints of the animals were diseased, the animals were grouped according to the joint swelling degree and the joint score, wherein the scoring criteria were as follows: • clinical diagnostic scoring criteria for joint soft tissue swelling and joint mobility:
as §3
During the experiment, hind limb ankle joints of the rats in each group were scored for joint soft tissue swelling and joint mobility on day 1, day 4, day 8, day 11 and day 15.

[7] = tested on: rheumatoid arthritis CIA model rats; test: Rheumatoid arthritis CIA model, hind limb joint weight determination; type: in vivo; conditions: day 8; Wistar CIA rats; anlotinib 10 mg/kg, dexamethasone 0.1 mg/kg oral gavage once daily; FIG. 5
Procedure: as §1, §2, §3
On day 8, two rats in each group were dissected, and the weight of the hind limb joints was measured. The remaining animals were subjected to normal experiments according to the grouping schedule. On day 15, the remaining animals in each group were dissected, and the weight of the hind limb joints was measured.

[8] = Rheumatoid arthritis CIA model, weight monitoring; type: in vivo; conditions: Wistar CIA rats, oral gavage once daily 14 days, dexamethasone 0.1 mg/kg, FIG. 1; for weight of the rats, regain after treatment: anlotinib 10 mg/kg
Procedure: as §1, §2, §3
During the experiment, the weight of the rats in each group was measured once daily from the day of grouping and administration (day 1) to day 15.

[9] = tested on: rheumatoid arthritis CIA model rats; test: Rheumatoid arthritis CIA model, joints photographing; type: in vivo; conditions: Wistar CIA rats; anlotinib 10 mg/kg, dexamethasone 0.1 mg/kg; FIGS. 6 and 7
Procedure: as §1, §2, §3
One rat in each group was selected, and the hind limb ankle joints thereof were photographed on day 4, day 8, day 11 and day 15.

[10] = tested on: tumor necrosis factor-α (TNF-α); test: CIA model rats, serum TNF-α by enzyme-linked immunosorbent assay; type: in vivo; conditions: SD CIA rats; day 28; 20 and 10 mg/kg
Procedure: as §4, §5, §6

SMILES	joint swelling degree (ankle width and thickness) compared to model group [1]	thickness of the hind limb ankle joints vs. model group ([1]; day 8)	width of the hind limb ankle joints vs. model group ([1]; day 15)	joint lesions (histopathology) compared to model group (CIA rats [5])	lesion scores of the hind limb ankle joints vs. model group ([6]; day 8)	lesion scores of the hind limb ankle joints vs. model group ([6]; day 11)	lesion scores of the hind limb ankle joints vs. model group ([6]; day 15)	weight of the hind limb joints vs. model group [7]	weight of the rats, regain after treatment [8]	joint swelling degree on photographs compared to model group [9]	further results
COc1cc2c(Oc3ccc4[nH]c(C)cc4c3F)ccnc2cc1OCC1(N)CC1 [Anlotinib hydrochloride, 1-[[[4-(4-fluoro-2-methyl-1H-indol-5-yl)oxy-6-methoxyquinolin-7-yl]oxy]methyl]cyclopropylamine]	improved to a certain extent	lower than that of the model group	lower than that of the model group	improved in different degrees	lower than those of the model group	lower than those of the model group	lower than those of the model group	lower than that of the model group	began to regain from day 7	improved to a certain extent	width of the hind limb ankle joints vs. model group ([1]; day 4): lower than that of the model group; thickness of the hind limb ankle joints vs. model group ([1]; day 4): lower than that of the model group; width of the hind limb ankle joints vs. model group ([1]; day 8): lower than that of the model group; inhibition of proliferation of human rheumatoid arthritis synovial cells ([2]; 0.5, 1, 2, 5 and 10 μM compared with drug-free group at 0 μM, 24 h and 48 h after dosing): significantly inhibit the proliferation of human rheumatoid arthritis synovial cells; concentration dependence of the inhibitory effect on synovial cell proliferation ([2]; 0.5-10 μM): enhanced along with the increase of the concentration of the drug; content of IL-1β in the serum of rats compared with model group (interleukin-1β (IL-1β)): could reduce; paw swelling degree compared with model group (CIA rats [3]): significantly reduced; drug efficacy on the rat rheumatoid arthritis model (conclusion) [4]: significant drug efficacy; dose dependence of joint improvement (histopathology) (CIA rats [5]; 20 mg/kg and 10 mg/kg): improved in a dose-dependent manner; joint cavity stenosis compared with model group (CIA rats [5]; 20 and 10 mg/kg): significantly improved; joint inflammatory infiltration compared with model group (CIA rats [5]; 20 and 10 mg/kg): significantly reduced; synovium hyperplasia compared with model group (CIA rats [5]; 20 and 10 mg/kg): significantly relieved; lesion scores of the hind limb ankle joints vs. model group ([6]; day 4): lower than those of the model group; content of TNF-α in the serum of rats compared with model group [10]: could reduce
C[C@@H]1C[C@H]2[C@@H]3CCC4=CC(=O)C=C[C@]4(C)[C@@]3(F)[C@@H](O)C[C@]2(C)[C@@]1(O)C(=O)COP(=O)(O)O [dexamethasone sodium phosphate, reference compound]	improved to a certain extent	lower than that of the model group	lower than that of the model group	significantly reduced	lower than those of the model group	lower than those of the model group	lower than those of the model group	lower than that of the model group	began to regain from day 7	improved to a certain extent	weight of the rats, early stage (side effect) [8]: significant weight loss at the early stage
